Values quoted from earlier work as cited in patent US5773415A, “Use of des-aspartate-angiotensin I as an anti-cardiac hypertrophic agent” (National University of Singapore, priority 1995, dated 1998).

Test system: specific aminopeptidase
Conditions: homogenates of rat aorta and hypothalamus

Inhibition of the aminopeptidase degrading angiotensin I to des-Aspartate-angiotensin I, not inhibited:
CC(C)C[C@@H](N)[C@H](O)C(=O)N[C@H](C(=O)N[C@H](C(=O)N[C@@H](CC(=O)O)C(=O)O)C(C)C)C(C)C [amastatin], O=C(O)CN(CCN(CC(=O)O)CC(=O)O)CC(=O)O [EDTA], CC(C)C[C@H](NC(=O)[C@@H](O)[C@H](N)Cc1ccccc1)C(=O)O [bestatin]
